Experiments:
Human coronavirus OC43 = assay: Antiviral activity against HCoV-OC43 infected in human NCI-H460 cells incubated for 72 hrs by CCK8 assay; type: functional, organism-based; conditions: Betacoronavirus 1, NCI-H460, 72 h
[1] = Cytotoxicity against human NCI-H460 cells incubated for 72 hrs by CCK8 assay; type: toxicity, cell-based; conditions: read-out: EC50
[2] = Selectivity index, ratio of CC50 for cytotoxicity against human NCI-H460 cells to EC50 for antiviral activity against HCoV-OC43 infected in human NCI-H460 cells; type: toxicity, cell-based, NCI-460; conditions: read-out: Ratio CC50/EC50

Compound	EC50 (Human coronavirus OC43)	CC50 at 72 h [1]	selectivity ratio [2]
CCC(=O)O[C@H]1[C@H](O[C@H]2[C@@H](CC=O)C[C@@H](C)[C@@H](O[C@H]3CC[C@H](N(C)C)[C@@H](C)O3)/C=C/C=C/C[C@@H](C)OC(=O)C[C@@H](O)[C@@H]2OC)O[C@H](C)[C@@H](O[C@H]2C[C@@](C)(O)[C@@H](O)[C@H](C)O2)[C@@H]1N(C)C	23.4 µM	> 161 µM	> 6.9
CO[C@@H]1[C@@H](O[C@@H]2O[C@H](C)[C@@H](O[C@H]3C[C@@](C)(O)[C@@H](O)[C@H](C)O3)[C@H](N(C)C)[C@H]2OC(=O)C(C)(C)C)[C@@H](CC=O)C[C@@H](C)[C@@H](O[C@H]2CC[C@H](N(C)C)[C@@H](C)O2)/C=C/C=C/C[C@@H](C)OC(=O)C[C@H]1O	4.5 µM	16.2 µM	3.6
COc1ccc(CCC(=O)O[C@H]2[C@H](O[C@H]3[C@@H](CC=O)C[C@@H](C)[C@@H](O[C@H]4CC[C@H](N(C)C)[C@@H](C)O4)/C=C/C=C/C[C@@H](C)OC(=O)C[C@@H](O)[C@@H]3OC)O[C@H](C)[C@@H](O[C@H]3C[C@@](C)(O)[C@@H](O)[C@H](C)O3)[C@@H]2N(C)C)cc1	4.52 µM	13.8 µM	3
CO[C@@H]1[C@@H](O[C@@H]2O[C@H](C)[C@@H](O[C@H]3C[C@@](C)(O)[C@@H](OC(=O)Cc4ccc(Cl)cc4)[C@H](C)O3)[C@H](N(C)C)[C@H]2OC(C)=O)[C@@H](CC=O)C[C@@H](C)[C@@H](O[C@H]2CC[C@H](N(C)C)[C@@H](C)O2)/C=C/C=C/C[C@@H](C)OC(=O)C[C@H]1O	> 6.25 µM	7.4 µM	< 1.2
CCCCC(=O)O[C@H]1[C@H](O[C@H]2[C@@H](CC=O)C[C@@H](C)[C@@H](O[C@H]3CC[C@H](N(C)C)[C@@H](C)O3)/C=C/C=C/C[C@@H](C)OC(=O)C[C@@H](O)[C@@H]2OC)O[C@H](C)[C@@H](O[C@H]2C[C@@](C)(O)[C@@H](O)[C@H](C)O2)[C@@H]1N(C)C	5.35 µM	33.5 µM	6.2
COc1ccc(CC(=O)O[C@H]2[C@H](C)O[C@@H](O[C@H]3[C@H](N(C)C)[C@@H](O)[C@H](O[C@H]4[C@@H](CC=O)C[C@@H](C)[C@@H](O[C@H]5CC[C@H](N(C)C)[C@@H](C)O5)/C=C/C=C/C[C@@H](C)OC(=O)C[C@@H](O)[C@@H]4OC)O[C@@H]3C)C[C@@]2(C)O)cc1	> 12.5 µM	27 µM	< 2.2
CC(C)C(=O)OC[C@H]1O[C@@H](n2ccc(NO)nc2=O)[C@H](O)[C@@H]1O [MOLNUPIRAVIR]	0.16 µM		196
CO[C@@H]1[C@@H](O[C@@H]2O[C@H](C)[C@@H](O[C@H]3C[C@@](C)(O)[C@@H](O)[C@H](C)O3)[C@H](N(C)C)[C@H]2OC(C)=O)[C@@H](CC=O)C[C@@H](C)[C@@H](O[C@H]2CC[C@H](N(C)C)[C@@H](C)O2)/C=C/C=C/C[C@@H](C)OC(=O)C[C@H]1O	29.8 µM	> 200 µM	> 6.71
CO[C@@H]1[C@@H](O[C@@H]2O[C@H](C)[C@@H](O[C@H]3C[C@@](C)(O)[C@@H](O)[C@H](C)O3)[C@H](N(C)C)[C@H]2OC(=O)c2ccc(F)c(C(F)(F)F)c2)[C@@H](CC=O)C[C@@H](C)[C@@H](O[C@H]2CC[C@H](N(C)C)[C@@H](C)O2)/C=C/C=C/C[C@@H](C)OC(=O)C[C@H]1O	1.79 µM	5.52 µM	3.1
CO[C@@H]1[C@@H](O[C@@H]2O[C@H](C)[C@@H](O[C@H]3C[C@@](C)(O)[C@@H](O)[C@H](C)O3)[C@H](N(C)C)[C@H]2OC(=O)/C=C/c2ccccc2)[C@@H](CC=O)C[C@@H](C)[C@@H](O[C@H]2CC[C@H](N(C)C)[C@@H](C)O2)/C=C/C=C/C[C@@H](C)OC(=O)C[C@H]1O	1.48 µM	5.57 µM	3.8
CO[C@@H]1[C@@H](O[C@@H]2O[C@H](C)[C@@H](O[C@H]3C[C@@](C)(O)[C@@H](O)[C@H](C)O3)[C@H](N(C)C)[C@H]2OC(=O)CCCc2ccccc2)[C@@H](CC=O)C[C@@H](C)[C@@H](O[C@H]2CC[C@H](N(C)C)[C@@H](C)O2)/C=C/C=C/C[C@@H](C)OC(=O)C[C@H]1O	11.9 µM	39.3 µM	3.3
CCCCCC(=O)O[C@H]1[C@H](O[C@H]2[C@@H](CC=O)C[C@@H](C)[C@@H](O[C@H]3CC[C@H](N(C)C)[C@@H](C)O3)/C=C/C=C/C[C@@H](C)OC(=O)C[C@@H](O)[C@@H]2OC)O[C@H](C)[C@@H](O[C@H]2C[C@@](C)(O)[C@@H](O)[C@H](C)O2)[C@@H]1N(C)C	5.05 µM	18.2 µM	3.6
CCCCC(=O)O[C@H]1[C@H](C)O[C@@H](O[C@H]2[C@H](N(C)C)[C@@H](O)[C@H](O[C@H]3[C@@H](CC=O)C[C@@H](C)[C@@H](O[C@H]4CC[C@H](N(C)C)[C@@H](C)O4)/C=C/C=C/C[C@@H](C)OC(=O)C[C@@H](O)[C@@H]3OC)O[C@@H]2C)C[C@@]1(C)O	5.61 µM	34 µM	6.1
CO[C@@H]1[C@@H](O[C@@H]2O[C@H](C)[C@@H](O[C@H]3C[C@@](C)(O)[C@@H](O)[C@H](C)O3)[C@H](N(C)C)[C@H]2OC(=O)C2CCC2)[C@@H](CC=O)C[C@@H](C)[C@@H](O[C@H]2CC[C@H](N(C)C)[C@@H](C)O2)/C=C/C=C/C[C@@H](C)OC(=O)C[C@H]1O	> 6.25 µM	13.7 µM	< 2.2
C=CC(=O)O[C@H]1[C@H](C)O[C@@H](O[C@H]2[C@H](N(C)C)[C@@H](OC(C)=O)[C@H](O[C@H]3[C@@H](CC=O)C[C@@H](C)[C@@H](O[C@H]4CC[C@H](N(C)C)[C@@H](C)O4)/C=C/C=C/C[C@@H](C)OC(=O)C[C@@H](O)[C@@H]3OC)O[C@@H]2C)C[C@@]1(C)O	4.78 µM	18.9 µM	4
CO[C@@H]1[C@@H](O[C@@H]2O[C@H](C)[C@@H](O[C@H]3C[C@@](C)(O)[C@@H](O)[C@H](C)O3)[C@H](N(C)C)[C@H]2OC(=O)C2CCCC2)[C@@H](CC=O)C[C@@H](C)[C@@H](O[C@H]2CC[C@H](N(C)C)[C@@H](C)O2)/C=C/C=C/C[C@@H](C)OC(=O)C[C@H]1O	> 12.5 µM	20 µM	< 1.6
CO[C@@H]1[C@@H](O[C@@H]2O[C@H](C)[C@@H](O[C@H]3C[C@@](C)(O)[C@@H](O)[C@H](C)O3)[C@H](N(C)C)[C@H]2OC(=O)C2CCCCC2)[C@@H](CC=O)C[C@@H](C)[C@@H](O[C@H]2CC[C@H](N(C)C)[C@@H](C)O2)/C=C/C=C/C[C@@H](C)OC(=O)C[C@H]1O	> 12.5 µM	15 µM	< 1.2
CCCC(=O)O[C@H]1[C@H](O[C@H]2[C@@H](CC=O)C[C@@H](C)[C@@H](O[C@H]3CC[C@H](N(C)C)[C@@H](C)O3)/C=C/C=C/C[C@@H](C)OC(=O)C[C@@H](O)[C@@H]2OC)O[C@H](C)[C@@H](O[C@H]2C[C@@](C)(O)[C@@H](O)[C@H](C)O2)[C@@H]1N(C)C	8.73 µM	68 µM	7.8
CO[C@@H]1[C@@H](O[C@@H]2O[C@H](C)[C@@H](O[C@H]3C[C@@](C)(O)[C@@H](O)[C@H](C)O3)[C@H](N(C)C)[C@H]2OC(=O)CCc2ccccc2)[C@@H](CC=O)C[C@@H](C)[C@@H](O[C@H]2CC[C@H](N(C)C)[C@@H](C)O2)/C=C/C=C/C[C@@H](C)OC(=O)C[C@H]1O	3.89 µM	18.9 µM	4.8
COc1ccc(CC(=O)O[C@H]2[C@H](C)O[C@@H](O[C@H]3[C@H](N(C)C)[C@@H](OC(C)=O)[C@H](O[C@H]4[C@@H](CC=O)C[C@@H](C)[C@@H](O[C@H]5CC[C@H](N(C)C)[C@@H](C)O5)/C=C/C=C/C[C@@H](C)OC(=O)C[C@@H](O)[C@@H]4OC)O[C@@H]3C)C[C@@]2(C)O)cc1	> 6.25 µM	13.1 µM	< 2.1
CO[C@@H]1[C@@H](O[C@@H]2O[C@H](C)[C@@H](O[C@H]3C[C@@](C)(O)[C@@H](O)[C@H](C)O3)[C@H](N(C)C)[C@H]2OC(=O)c2ccc(F)cc2C(F)(F)F)[C@@H](CC=O)C[C@@H](C)[C@@H](O[C@H]2CC[C@H](N(C)C)[C@@H](C)O2)/C=C/C=C/C[C@@H](C)OC(=O)C[C@H]1O	1.2 µM	3.54 µM	3
CCCC(=O)O[C@H]1[C@H](C)O[C@@H](O[C@H]2[C@H](N(C)C)[C@@H](O)[C@H](O[C@H]3[C@@H](CC=O)C[C@@H](C)[C@@H](O[C@H]4CC[C@H](N(C)C)[C@@H](C)O4)/C=C/C=C/C[C@@H](C)OC(=O)C[C@@H](O)[C@@H]3OC)O[C@@H]2C)C[C@@]1(C)O	5.17 µM	33.1 µM	6.4
C=CC(=O)O[C@H]1[C@H](C)O[C@@H](O[C@H]2[C@H](N(C)C)[C@@H](O)[C@H](O[C@H]3[C@@H](CC=O)C[C@@H](C)[C@@H](O[C@H]4CC[C@H](N(C)C)[C@@H](C)O4)/C=C/C=C/C[C@@H](C)OC(=O)C[C@@H](O)[C@@H]3OC)O[C@@H]2C)C[C@@]1(C)O	12 µM	38.4 µM	3.2
CO[C@@H]1[C@@H](O[C@@H]2O[C@H](C)[C@@H](O[C@H]3C[C@@](C)(O)[C@@H](OC(=O)CC(C)C)[C@H](C)O3)[C@H](N(C)C)[C@H]2OC(C)=O)[C@@H](CC=O)C[C@@H](C)[C@@H](O[C@H]2CC[C@H](N(C)C)[C@@H](C)O2)/C=C/C=C/C[C@@H](C)OC(=O)C[C@H]1O	7.89 µM	25.7 µM	3.3

Reference: ChEMBL document CHEMBL6103594, “Synthesis and evolution of 16-membered macrolide carrimycin derivatives as a novel class of anti-HCoV-OC43 agents targeting viral FSE RNA” (Eur J Med Chem, 2025)
